The values that follow come from patent US8859235B2, “Methods in cell cultures, and related inventions, employing certain additives” (priority 2009, dated 2014).

The test system of one test is E. coli JM109. The test is described as follows: Growth and GFPuv expression in E. coli JM109, shake flask cultivation in mineral medium. The class given is cell-based, Escherichia coli. Conditions: Experiment 2, additive 5 mM, 20 h, mean of two. As for the experimental part:
Precultures are prepared in 250 mL baffled shake flasks containing 25 mL sterile mineral medium [macronutrients in g/L: Glycerol (25), (NH4)2-citrate (1.0), Na2HPO4 2H2O (9.0), KH2PO4 (1.82), NH4Cl (1.52), MgSO4 (0.12), (NH4)2SO4 (0.6); Ampicillin ([…]); micronutrients in mg/L: Na2-EDTA (8.4), thiamine (4.5), Fe(III) citrate (12.5), Na2MoO4 2×H2O (2.5), H3BO3 (3), CoCl2 6×H2O (2.5), CuSO4 5×H2O (0.45) MnCl24×H2O (15), ZnCl2 (8) adjusted to pH 7.0]. Cultures are inoculated with 250 μL of a glycerol stock stored at −80° C. of E. coli JM109 (Promega Inc, Wallisellen, C H; Genotype: endA1, recA1, gyrA96, thi, hsdR17 (rk^−, mk^+), re/A1, supE44, Δ(lac-proAB), [F″ traD36, proAB, laql^qZΔM15]) harboring the plasmid pBAD-GFPuv (Biorad Inc., Reinach, C H; Genbank U62637.1, containing the GFPuv gene under control of the ara promoter; GFP=Green Fluorescent Protein). Precultures are incubated at 37° C. for 10-12 h.
Experimental cultures are performed in a volume of 25 mL of the above described medium in 250 mL baffled shake flasks. Stabilizers according to the invention are added to a final concentration of 5 mM as indicated from sterile stock solutions. Cultures are started by inoculating with the preculture to an optical density at 600 nm (OD600) of 0.25. Growth of the culture is monitored by reading optical density at 600 nm. Cultures are induced by adding L-arabinose to a final concentration of 0.2% (w/v) when the OD600 reaches 0.5. Samples of 1 mL are taken 6 and 20 h after induction for OD600 reading and GFP quantification. For GFP quantification 1 mL of the culture is harvested after 2-4 h and after 20 h after induction. Cells are collected by centrifugation at 16 000 g and the cell pellet is stored at −20° C. for further analysis.
(§1) The measurement of GFP expression by whole cell fluorescence measurements follows the procedure of Scholz et al. (Eur. J. Biochem., 2000,267, 1565-1570). Frozen cell pellets are thawed, resuspended in 1 mL PBS [NaCl (8 g/L), KCl (0.2), of Na2HPO4 (1.44), KH2PO4 (0.24), adjusted to pH 7.4] and subsequently diluted to an optical density of 0.1. GFP fluorescence of whole cells is measured in a Eclipse Fluorometer (Varian) with an excitation wavelength of 400 nm and an emission wavelength of 512 nm. Specific relative fluorescence [RFU/OD600] is calculated by dividing the relative fluorescence emmision units by the optical density of the suspension at 600 nm.

For another test, the system named is E. coli BL21. The test is described as follows: Growth and GFPuv expression in E. coli BL21 (DE3), shake flask batch culture in complex medium. The class given is cell-based, Escherichia coli. Conditions: additive 5 mM, 20 h after induction. Here is the method: as §1
Precultures are prepared in 250 mL baffled shake flasks containing 25 mL sterile LB medium [Tryptone (10.0 g/L), yeast extract (5.0), NaCl (10.0), kanamycin 30 (mg/L); adjusted to pH 7.0 with NaOH]. Cultures are inoculated with 250 μL of a glycerol stock stored at −80° C. of E. coli BL21 [Novagen, Madison, USA; Genotype: E ompT hsdSB (rB^− mB^−) gal dcm (DE3)] harboring the plasmid pET28a-GFPuv which is obtained by inserting the GFPuv gene (isolated from pBAD-GFPuv through PCR) into the EcoRI site of pET28a (Novagen, Madison, USA) which placed the GFPuv gene under the control of the T7/Lac promotor system. Precultures are incubated at 37° C. for 10-12 h.
Experimental cultures are performed in a volume of 25 mL of the above described medium in 250 mL baffled shake flasks. Stabilizers are added to a final concentration of 5 mM as indicated from sterile stock solutions. Cultures are started by inoculating with the preculture to an OD600 at 600 nm of 0.25. Samples are taken for OD600 measurements. Cultures are induced by adding IPTG (Isopropyl-β-D-thiogalactoside) to a final concentration of 0.5 mM when the OD600 reaches 0.5. Samples of 1 mL are taken after induction for OD600 reading and GFP quantification. For GFP quantification 1 mL of the culture is harvested after 2-4 h and after 20 h after induction. Cells are collected by centrifugation at 16 000 g and the cell pellet is stored at −20° C. for further analysis. Analysis of in vivo GFP fluorescence is performed by the method described in Example 1.

In the case of `CC1(C)CC(O)CC(C)(C)N1[O]` [4-Hydroxy-2,2,6,6-tetramethylpiperidin-1-oxyl], the “Growth (Final OD600)” value was 9.5 OD600 in the test on E. coli JM109 (control 11.0); 2.4 OD600 in the test on E. coli BL21 (Experiment 1, control 3.4); 2.61 OD600 with E. coli BL21 (Experiment 2, control 3.3). For the same molecule, the “GFP expression (Relative fluorescence unit*OD600^−1)” value is reported as 7276 Relative fluorescence unit*OD600^−1 in the test with E. coli JM109 (control 1423); 1909 Relative fluorescence unit*OD600^−1 in the test on E. coli BL21 (Experiment 1, control 584); 319 Relative fluorescence unit*OD600^−1 in the test with E. coli BL21 (Experiment 2, control 195).
